Each block holds one compound with its values, some of them ahead of it.
Tests used:
[1] = biological target: Mu-type opioid receptor (Homo sapiens) (UniProt P35372); settings: Compound concentration 10.0 uM
[2] = biological target: Histamine H4 receptor (Homo sapiens) (UniProt Q9H3N8); settings: Compound concentration 10.0 uM
Rattus norvegicus [3] = species: Rattus norvegicus; settings: Compound concentration 10.0 uM
Rattus norvegicus [4] = species: Rattus norvegicus; assay: Inhibition of Imidazoline I2, Central at 10 µM in the Eurofins-Panlabs radioligand binding assay (Eurofins_assay_241000); parameters: ligand concentration 2 nM; settings: Compound concentration 10.0 uM
[5] = biological target: D(4) dopamine receptor (Homo sapiens) (UniProt P21917); settings: Compound concentration 10.0 uM
Sequence of D(4) dopamine receptor (Homo sapiens) (P21917 whole entry): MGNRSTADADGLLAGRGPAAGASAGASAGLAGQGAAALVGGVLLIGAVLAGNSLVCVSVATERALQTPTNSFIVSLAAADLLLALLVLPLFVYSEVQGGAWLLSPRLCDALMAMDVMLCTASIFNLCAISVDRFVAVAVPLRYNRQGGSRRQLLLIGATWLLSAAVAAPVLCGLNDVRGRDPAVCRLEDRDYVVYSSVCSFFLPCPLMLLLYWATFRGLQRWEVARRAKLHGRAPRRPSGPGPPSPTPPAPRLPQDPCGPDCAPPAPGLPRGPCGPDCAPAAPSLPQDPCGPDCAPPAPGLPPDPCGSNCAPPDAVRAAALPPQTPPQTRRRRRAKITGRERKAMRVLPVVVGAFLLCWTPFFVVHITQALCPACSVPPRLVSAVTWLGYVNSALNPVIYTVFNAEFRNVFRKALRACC

[6] = biological target: Prostaglandin E2 receptor EP4 subtype (Homo sapiens) (UniProt P35408); assay: Inhibition of Prostanoid EP4 at 10 µM in the Eurofins-Panlabs radioligand binding assay (Eurofins_assay_268420); parameters: ligand concentration 1 nM; settings: Compound concentration 10.0 uM
Sequence of Prostaglandin E2 receptor EP4 subtype (Homo sapiens) (P35408 whole entry): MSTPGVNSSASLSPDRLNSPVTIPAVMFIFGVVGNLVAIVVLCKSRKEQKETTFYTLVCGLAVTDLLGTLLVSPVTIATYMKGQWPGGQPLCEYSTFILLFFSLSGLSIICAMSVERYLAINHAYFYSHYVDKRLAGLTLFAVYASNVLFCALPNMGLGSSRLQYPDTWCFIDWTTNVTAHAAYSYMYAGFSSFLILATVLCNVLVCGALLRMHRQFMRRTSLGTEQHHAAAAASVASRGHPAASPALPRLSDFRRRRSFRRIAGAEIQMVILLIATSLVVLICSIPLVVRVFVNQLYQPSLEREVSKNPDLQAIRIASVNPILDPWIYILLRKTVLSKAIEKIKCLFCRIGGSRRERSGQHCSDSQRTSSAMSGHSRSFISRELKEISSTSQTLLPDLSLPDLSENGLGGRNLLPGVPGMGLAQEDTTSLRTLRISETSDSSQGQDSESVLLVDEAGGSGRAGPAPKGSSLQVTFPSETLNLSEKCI

[7] = biological target: 5-hydroxytryptamine receptor 2C (Homo sapiens) (UniProt P28335); settings: Compound concentration 10.0 uM
Sequence of 5-hydroxytryptamine receptor 2C (Homo sapiens) (P28335 whole entry): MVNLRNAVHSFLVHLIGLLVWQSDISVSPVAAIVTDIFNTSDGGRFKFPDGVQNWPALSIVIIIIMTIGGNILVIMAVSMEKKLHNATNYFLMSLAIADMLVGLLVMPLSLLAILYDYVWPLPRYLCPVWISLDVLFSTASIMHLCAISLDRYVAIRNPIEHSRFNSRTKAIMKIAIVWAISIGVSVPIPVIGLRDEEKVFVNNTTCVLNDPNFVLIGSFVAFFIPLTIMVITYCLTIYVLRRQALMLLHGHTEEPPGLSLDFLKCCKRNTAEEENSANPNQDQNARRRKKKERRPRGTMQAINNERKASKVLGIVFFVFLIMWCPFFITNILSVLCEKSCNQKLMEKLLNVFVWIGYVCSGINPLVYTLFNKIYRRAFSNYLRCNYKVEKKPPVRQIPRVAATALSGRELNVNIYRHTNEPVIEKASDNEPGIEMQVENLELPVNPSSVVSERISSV

[8] = biological target: Alpha-2C adrenergic receptor (Homo sapiens) (UniProt P18825); settings: Compound concentration 10.0 uM
[9] = biological target: Mitogen-activated protein kinase 4 (Homo sapiens, UniProt P31152); assay: ERK4(MAP4LGY1) Takeda global kinase panel
[10] = biological target: Sigma non-opioid intracellular receptor 1 (Homo sapiens) (UniProt Q99720); settings: Compound concentration 10.0 uM
Sequence of Sigma non-opioid intracellular receptor 1 (Homo sapiens) (Q99720 whole entry): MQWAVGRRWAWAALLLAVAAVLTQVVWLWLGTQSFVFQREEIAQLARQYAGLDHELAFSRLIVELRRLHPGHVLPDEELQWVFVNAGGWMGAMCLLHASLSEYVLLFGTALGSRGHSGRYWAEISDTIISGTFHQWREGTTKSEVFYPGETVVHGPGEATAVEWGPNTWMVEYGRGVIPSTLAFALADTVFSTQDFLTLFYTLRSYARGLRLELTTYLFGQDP

[11] = biological target: 5-hydroxytryptamine receptor 1B (Homo sapiens) (UniProt P28222); settings: Compound concentration 10.0 uM
Sequence of 5-hydroxytryptamine receptor 1B (Homo sapiens) (P28222 whole entry): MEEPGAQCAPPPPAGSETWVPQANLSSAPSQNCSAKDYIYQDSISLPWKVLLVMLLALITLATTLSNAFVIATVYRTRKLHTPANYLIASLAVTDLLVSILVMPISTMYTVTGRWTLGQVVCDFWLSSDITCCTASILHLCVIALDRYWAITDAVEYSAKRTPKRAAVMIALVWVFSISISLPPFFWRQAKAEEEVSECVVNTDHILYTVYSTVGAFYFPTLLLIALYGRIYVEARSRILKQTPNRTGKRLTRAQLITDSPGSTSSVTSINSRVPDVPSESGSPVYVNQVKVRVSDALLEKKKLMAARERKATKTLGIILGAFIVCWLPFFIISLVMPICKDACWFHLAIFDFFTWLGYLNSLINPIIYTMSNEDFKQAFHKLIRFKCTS

[12] = biological target: Interleukin-1 receptor-associated kinase 1 (Homo sapiens, UniProt P51617); assay: IRAK1(IRK1LGF1) Takeda global kinase panel
Myosin-IIIa = Myosin-IIIa (Homo sapiens, UniProt Q8NEV4); assay: MYO3A(MY3ALGRI) Takeda global kinase panel
[13] = biological target: Serine/threonine-protein kinase 38 (Homo sapiens, UniProt Q15208); assay: NDR1(ST38LGF1) Takeda global kinase panel
[14] = biological target: Protein kinase C gamma type (Homo sapiens, UniProt P05129); assay: PKCgamma(PRKGLGP1) Takeda global kinase panel
[15] = biological target: Dual specificity mitogen-activated protein kinase kinase 7 (Homo sapiens, UniProt O14733); assay: MAP2K7(M2K7CGRI) Takeda global kinase panel
Sequence of Dual specificity mitogen-activated protein kinase kinase 7 (O14733 whole entry): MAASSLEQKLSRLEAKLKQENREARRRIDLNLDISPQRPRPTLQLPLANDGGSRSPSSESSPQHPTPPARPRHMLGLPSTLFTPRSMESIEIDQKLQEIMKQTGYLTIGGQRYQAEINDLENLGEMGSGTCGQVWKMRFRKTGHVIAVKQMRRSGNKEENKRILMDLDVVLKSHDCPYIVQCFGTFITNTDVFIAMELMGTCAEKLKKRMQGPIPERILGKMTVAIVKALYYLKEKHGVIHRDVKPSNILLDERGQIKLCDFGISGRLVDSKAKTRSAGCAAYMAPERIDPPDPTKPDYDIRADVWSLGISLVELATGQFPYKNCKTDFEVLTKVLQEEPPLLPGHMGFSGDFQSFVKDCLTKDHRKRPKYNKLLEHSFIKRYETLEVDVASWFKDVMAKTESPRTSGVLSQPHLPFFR

[16] = biological target: Tyrosine-protein kinase Lyn (Homo sapiens, UniProt P07948); assay: Lyn(LYN1LGF1) Takeda global kinase panel
Sequence of Tyrosine-protein kinase Lyn (P07948 whole entry): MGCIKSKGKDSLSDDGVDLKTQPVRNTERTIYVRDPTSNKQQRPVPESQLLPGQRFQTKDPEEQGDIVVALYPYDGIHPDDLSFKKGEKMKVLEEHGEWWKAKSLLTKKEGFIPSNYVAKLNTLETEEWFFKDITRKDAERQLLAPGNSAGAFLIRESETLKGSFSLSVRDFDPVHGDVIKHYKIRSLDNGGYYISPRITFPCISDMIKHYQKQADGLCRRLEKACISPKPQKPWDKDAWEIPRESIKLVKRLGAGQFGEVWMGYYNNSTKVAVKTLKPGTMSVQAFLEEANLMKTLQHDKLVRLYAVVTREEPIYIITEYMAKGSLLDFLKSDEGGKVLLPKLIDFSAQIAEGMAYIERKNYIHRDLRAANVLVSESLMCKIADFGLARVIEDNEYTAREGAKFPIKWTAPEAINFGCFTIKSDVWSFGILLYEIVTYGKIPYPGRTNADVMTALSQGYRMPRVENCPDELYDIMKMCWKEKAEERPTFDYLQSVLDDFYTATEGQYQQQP

[17] = biological target: Inhibitor of nuclear factor kappa-B kinase subunit epsilon (Homo sapiens, UniProt Q14164); assay: IKKepsilon(IKBELGY1) Takeda global kinase panel
[18] = biological target: Dual specificity mitogen-activated protein kinase kinase 2 (Homo sapiens, UniProt P36507); assay: MEK2 [MAP2K2(M2K2LGF1)] Takeda global kinase panel
Sequence of Dual specificity mitogen-activated protein kinase kinase 2 (P36507 whole entry): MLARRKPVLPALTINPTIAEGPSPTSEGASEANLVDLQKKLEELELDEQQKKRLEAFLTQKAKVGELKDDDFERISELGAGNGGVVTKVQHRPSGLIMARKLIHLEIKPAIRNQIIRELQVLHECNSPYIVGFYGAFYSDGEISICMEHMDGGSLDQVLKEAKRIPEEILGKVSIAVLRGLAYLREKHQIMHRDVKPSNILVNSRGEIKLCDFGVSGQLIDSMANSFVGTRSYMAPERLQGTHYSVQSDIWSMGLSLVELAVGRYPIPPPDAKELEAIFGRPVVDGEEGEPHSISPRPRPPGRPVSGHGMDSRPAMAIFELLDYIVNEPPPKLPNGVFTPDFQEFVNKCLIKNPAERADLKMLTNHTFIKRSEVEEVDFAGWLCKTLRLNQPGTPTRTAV

[19] = biological target: Hepatocyte growth factor receptor (Homo sapiens, UniProt P08581); assay: Met([…]) Takeda global kinase panel
Angiopoietin-1 receptor = Angiopoietin-1 receptor (Homo sapiens, UniProt Q02763); assay: TIE2(TEK1LGF1) Takeda global kinase panel
[20] = biological target: Histamine H2 receptor (Homo sapiens) (UniProt P25021); settings: Compound concentration 10.0 uM
Sequence of Histamine H2 receptor (Homo sapiens) (P25021 whole entry): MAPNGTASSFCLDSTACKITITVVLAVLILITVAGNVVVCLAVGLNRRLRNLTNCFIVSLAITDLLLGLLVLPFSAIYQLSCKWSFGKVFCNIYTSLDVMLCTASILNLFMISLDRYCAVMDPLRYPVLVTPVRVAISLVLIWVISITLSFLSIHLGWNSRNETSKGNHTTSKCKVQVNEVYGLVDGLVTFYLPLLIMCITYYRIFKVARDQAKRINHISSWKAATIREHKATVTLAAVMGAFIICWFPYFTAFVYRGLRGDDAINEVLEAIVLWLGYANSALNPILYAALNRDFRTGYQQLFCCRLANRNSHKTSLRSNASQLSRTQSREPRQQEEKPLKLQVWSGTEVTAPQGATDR

[21] = biological target: MAP kinase-activated protein kinase 5 (Homo sapiens, UniProt Q8IW41); assay: MAPKAPK5(MPK5LGN1) Takeda global kinase panel
Sequence of MAP kinase-activated protein kinase 5 (Q8IW41 whole entry): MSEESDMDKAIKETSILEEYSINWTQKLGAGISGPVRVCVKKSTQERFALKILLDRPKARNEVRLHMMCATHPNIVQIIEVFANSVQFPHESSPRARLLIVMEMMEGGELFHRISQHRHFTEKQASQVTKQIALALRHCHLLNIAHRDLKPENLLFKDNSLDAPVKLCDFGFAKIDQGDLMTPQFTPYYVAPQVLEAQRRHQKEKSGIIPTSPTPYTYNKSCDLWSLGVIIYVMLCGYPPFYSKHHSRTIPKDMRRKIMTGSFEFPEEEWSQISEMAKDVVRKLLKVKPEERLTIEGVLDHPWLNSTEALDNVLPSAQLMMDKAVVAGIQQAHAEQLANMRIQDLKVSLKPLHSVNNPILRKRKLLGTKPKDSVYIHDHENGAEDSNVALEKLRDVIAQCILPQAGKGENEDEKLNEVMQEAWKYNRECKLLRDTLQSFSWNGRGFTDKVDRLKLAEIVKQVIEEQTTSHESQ

Sequence of Mu-type opioid receptor (Homo sapiens) (P35372 whole entry): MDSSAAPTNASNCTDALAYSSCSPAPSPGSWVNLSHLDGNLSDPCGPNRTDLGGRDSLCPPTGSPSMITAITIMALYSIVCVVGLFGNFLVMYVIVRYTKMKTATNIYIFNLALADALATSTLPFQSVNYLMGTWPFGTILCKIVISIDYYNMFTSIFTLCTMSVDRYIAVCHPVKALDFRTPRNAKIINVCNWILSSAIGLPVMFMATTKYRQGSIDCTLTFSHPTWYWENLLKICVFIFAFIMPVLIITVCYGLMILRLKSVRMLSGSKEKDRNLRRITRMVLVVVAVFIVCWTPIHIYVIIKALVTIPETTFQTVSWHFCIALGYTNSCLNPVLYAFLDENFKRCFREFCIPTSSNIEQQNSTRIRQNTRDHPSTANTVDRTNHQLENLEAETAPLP

Compound: CN1C(=O)[C@@H](N2CCc3cn(Cc4ccccc4)nc3C2=O)COc2ccccc21 [TP-030-1]
inhibition [1]: 10.6%
inhibition [2]: 6.09%
inhibition (Rattus norvegicus [3]): 68.7%
inhibition (Rattus norvegicus [4]): 6%
inhibition [5]: 17.4%
inhibition [6]: 12%
inhibition [7]: -2.89%
inhibition [8]: 34.7%
IC50 [9]: 1 µM
inhibition [10]: -1.9%
inhibition [11]: 0.99%

IC50 [12]: 1 µM
IC50 (Myosin-IIIa): 1 µM
IC50 [13]: 1 µM
IC50 [14]: 1 µM
IC50 [15]: 1 µM
IC50 [16]: 1 µM
IC50 [17]: 1 µM
IC50 [18]: 1 µM
IC50 [19]: 1 µM
IC50 (Angiopoietin-1 receptor): 1 µM
inhibition [20]: -10%
IC50 [21]: 1 µM
Compound: CN1C(=O)[C@@H](N2CCc3cn(CC4CCS(=O)(=O)CC4)nc3C2=O)COc2ccccc21 [TP-030n]

Source: ChEMBL document CHEMBL4507327 (2021)
